The LD50 is the dose expected to kill half of the subjects tested. A high value points to a less toxic substance.

Data set [1] deals with Cholesterol level in the serum. In words: Lipid level lowering activity: serum cholesterol depression in normolipemic rats. The following applies: Rattus norvegicus, oral, by regression analysis; for ED20: dose leading to 20% depression of serum cholesterol; for ED15: dose leading to 15% depression of serum cholesterol. In kind it is in vivo, male normolipemic rats. As for the experimental part:
(§1) The above pharmacologicaly activity of the compounds of this invention, as well as their acute toxicities, were ascertained along with those of the three antihyperlipidemic compounds of the prior art by the standard test methods described below.
The test compound was administered twice by an esophageal tube at 20 hours' interval to male normolipemic rats having a body weight of 250-300 gm. When the test began, the animals were deprived of food, but water was freely accessible to them. 28 and 44 hours later the serum cholesterol and triglyceride-levels were determined. The measurement of cholesterol and triglycerides was effected simultaneously, using an autoanalyzer; the percentage depression was calculated, compared with a control group treated with placebo.
The cholesterol-lowering activity of the test compound was observed after oral administration of one dose and after oral administration of various doses.

A short description of a further data set: Acute toxicity, oral. In kind it is in vivo. The following applies: mouse, in vivo, white mice, observation time 14 days. As for the experimental part:
as §1
(§2) The acute toxicity was determined on groups of 5 or 6 white mice each, after oral administration of the test compound at dosage levels of 2.5 gm/kg, 5 gm/kg and 10 gm/kg (observation time 14 days).

In another data set the test system is white mice. The experiment in a line: Acute toxicity, oral. The conditions noted are these: 14 days, at the dose given as LD50. Format: in vivo. As for the experimental part: as §1, §2
For data set [2] the following is noted: as disclosed in prior-art patents; cited from earlier work.
For data set [3] the following is noted: see Therapie 27, 385 (1972); cited from earlier work.
Setting [4] is: 28 hours after beginning of the test.
Setting [5] is: 44 hours after beginning of the test.

With `COc1ccc(Cl)cc1C(=O)NCCc1ccc(-c2ccc(OC(C)(C)C(=O)O)cc2)cc1` [A, 2-methyl-2-{4-[2-(2-methoxy-5-chloro-benzamido)-ethyl]-biphenyl-4'-oxy}-propionic acid], the figures for the ED20 in data set [1] (setting [4]) and in data set [1] (setting [5]) were 16 mg/kg and 4.41 mg/kg, respectively. Also, the LD50 at 336 h in the data set “Acute toxicity, oral” was more than 10000 mg/kg. Also, the animals died in the data set on white mice is 0 out of 5.

`COc1ccccc1C(=O)NCCc1ccc(-c2ccc(OC(C)(C)C(=O)O)cc2)cc1` [B, 2-methyl-2-{4-[2-(2-methoxy-benzamido)-ethyl]-biphenyl-4'-oxy}-propionic a cid]: the ED20 in data set [1] (setting [4]) worked out at 3.1 mg/kg; in data set [1] (setting [5]) it was 0.59 mg/kg. The molecule further registered an LD50 at 336 h in “Acute toxicity, oral” of more than 2500 mg/kg. Further, in the data set on white mice, the animals died is reported as 1 out of 5.

Take `CCOC(=O)C(C)(C)Oc1ccc(Cl)cc1` [C, ethyl 2-(4-chlorophenoxy)-2-methyl propionate]: in data set [1] (setting [4]), the ED15 is 15 mg/kg and the ED20 stood at 22 mg/kg. Besides, in data set [1] (setting [5]), the ED15 came out at 25 mg/kg and the ED20 came out at 32 mg/kg. Besides, the “antihypercholesteremic / antihyperlipidemic properties” value in data set [2] is given as “has antihypercholesteremic properties”. For the same molecule, in data set [3], the “Toxicity (LD50)” value is given as 1.7 gm/kg.

Consider `COC(=O)C(C)(C)Oc1ccc(-c2ccc(Cl)cc2)cc1` [D, methyl 2-[4-(4-chlorophenyl)-phenoxy]-2-methyl-propionate], for which the ED15 in data set [1] (setting [4]) amounted to 6.9 mg/kg; in data set [1] (setting [5]) it was 4.4 mg/kg. Also, the ED20 in data set [1] (setting [4]) worked out at 11 mg/kg; in data set [1] (setting [5]), 5.6 mg/kg. The same molecule displayed an LD50 at 336 h in the data set “Acute toxicity, oral” of 5000 mg/kg. The animals died in the data set with white mice was 3 out of 5. In addition, in data set [2], the “antihypercholesteremic / antihyperlipidemic properties” value is “has antihyperlipidemic properties”.

As for `CCOC(=O)C(C)(C)Oc1ccc(CCNC(=O)c2cc(Cl)ccc2OC)cc1` [E, ethyl 2-methyl-2-{4-[2-(2-methoxy-5-chloro-benzamido)-ethyl]-phenoxy}-propionate], the ED15 in data set [1] (setting [4]) and in data set [1] (setting [5]) was 3.6 mg/kg throughout. Further, the ED20 in data set [1] (setting [4]) and in data set [1] (setting [5]) was 5 mg/kg in each case. For the same molecule, the LD50 at 336 h in “Acute toxicity, oral” was found to be 2500 mg/kg. Moreover, the animals died in the data set with white mice is listed as 3 out of 6. The “antihypercholesteremic / antihyperlipidemic properties” value in data set [2] is reported as “exhibits similar properties”.

(Values after US4042711A, “Derivatives of biphenyloxy-lower alkanoic acids, salts thereof and their use as antihyperlipidemics” (Boehringer Ingelheim GmbH, priority 1975, dated 1977).)
